Source: patent US20080293583A1, “Methods for diagnosing mood disorders” (Wyeth, priority 2003, published 2008)

How the values were obtained:
Assay type in all cases: in vivo
[1] = system: 61 S Ribosomal protein L28; assay: 2-DE proteome analysis of rat hippocampus: Ribosomal protein L28; details: rat hippocampus cytosolic extract, 10 mg/kg i.p. daily 14 days, vs control; gel spot 66
Method: (§1) Animal dosing. Adult male Sprague Dawley rats weighing 230-320 g were housed with ad libitum access to food and water. After 1 week of habituation, rats were administered either an antidepressant or vehicle alone. The following drugs were administered intraperitoneally (i.p.): fluoxetine (10 mg/kg daily), venlafaxine (10 mg/kg daily) or vehicle alone (1 ml/kg normal saline daily) for 14 days (n=3 rats per group).
(§2) Sample preparation and cytosolic protein extraction. The animals were euthanized and hippocampi were rapidly dissected from the whole brain. Samples from each treatment group were pooled and stored at −85° C. Cytosolic extracts were prepared using the universal extraction kit from Sigma (prot-two) as follows: soluble cytoplasmic extraction reagent (S2688) was added to the hippocampal tissue (10 ml/250 mg wet weight). […]
(§3) Two-dimensional gel electrophoresis. […] Molecular masses were determined by running standard protein markers (Genomic Solutions Inc.), covering the range 10-200 kDa as well as internal verification via landmark proteins within the gel. […]
(§4) Protein fixation, silver staining and 2-D gel comparisons. […] Protein spots were outlined (first automatically and then manually) and quantified using the HT analyzer v2.2 software (Genomic Solutions Inc.). The software calculated the relative spot volume of the proteins compared with the total amount of protein in the gel. […]

[2] = system: Antioxidant protein 2 (calcium-independent PLA2); assay: 2-DE proteome analysis of rat hippocampus: Antioxidant protein 2; details: rat hippocampus cytosolic extract, 10 mg/kg i.p. daily 14 days, vs control; gel spot 51
Method: as §1, §2, §3, §4

[3] = system: Probasin precursor (lipocalin family member); assay: 2-DE proteome analysis of rat hippocampus: Probasin precursor; details: rat hippocampus cytosolic extract, 10 mg/kg i.p. daily 14 days, vs control; gel spot 70
Method: as §1, §2, §3, §4

[4] = system: L-Lactate Dehydrogenase B Chain; assay: 2-DE proteome analysis of rat hippocampus: L-Lactate Dehydrogenase B Chain; details: rat hippocampus cytosolic extract, 10 mg/kg i.p. daily 14 days, vs control; gel spot 23
Method: as §1, §2, §3, §4

[5] = system: 40 S ribosomal protein S 19; assay: 2-DE proteome analysis of rat hippocampus: ribosomal protein S 19; details: rat hippocampus cytosolic extract, 10 mg/kg i.p. daily 14 days, vs control; gel spot 72
Method: as §1, §2, §3, §4

[6] = system: Cytochrome C oxidase polypeptide VB, mitochondrial precursor (COX5B); assay: 2-DE proteome analysis of rat hippocampus: COX5B; details: rat hippocampus cytosolic extract, 10 mg/kg i.p. daily 14 days, vs control; gel spot 86
Method: as §1, §2, §3, §4

[7] = system: Transcription Initiation factor IIA Gamma Chain; assay: 2-DE proteome analysis of rat hippocampus: TFIIA Gamma Chain; details: rat hippocampus cytosolic extract, 10 mg/kg i.p. daily 14 days, vs control; gel spot 88
Method: as §1, §2, §3, §4

[8] = system: Ras-related protein RAB-1B; assay: 2-DE proteome analysis of rat hippocampus: RAB-1B; details: rat hippocampus cytosolic extract, 10 mg/kg i.p. daily 14 days, vs control; gel spot 90 (mix)
Method: as §1, §2, §3, §4

[9] = system: Adenine Phosphoribosyltransferase (APRT); assay: 2-DE proteome analysis of rat hippocampus: APRT; details: rat hippocampus cytosolic extract, 10 mg/kg i.p. daily 14 days, vs control; gel spot 57
Method: as §1, §2, §3, §4

[10] = system: Serine Protease Inhibitor 2.1 (SPI-2.1); assay: 2-DE proteome analysis of rat hippocampus: SPI-2.1; details: rat hippocampus cytosolic extract, 10 mg/kg i.p. daily 14 days, vs control; gel spot 62
Method: as §1, §2, §3, §4

[11] = system: Ras-related protein RAB-4A; assay: 2-DE proteome analysis of rat hippocampus: RAB-4A; details: rat hippocampus cytosolic extract, 10 mg/kg i.p. daily 14 days, vs control; gel spot 90 (mix)
Method: as §1, §2, §3, §4

[12] = system: Myelin Basic Protein S (MBP S); assay: 2-DE proteome analysis of rat hippocampus: MBP S; details: rat hippocampus cytosolic extract, 10 mg/kg i.p. daily 14 days, vs control; gel spot 64
Method: as §1, §2, §3, §4

Compound | Fold change, 61 S Ribosomal protein L28 [1] [Fold change] | Fold change, Antioxidant protein 2 [2] [Fold change] | Fold change, Probasin precursor [3] [Fold change] | Fold change, L-Lactate Dehydrogenase B Chain [4] [Fold change] | Fold change, 40 S ribosomal protein S 19 [5] [Fold change] | Fold change, Cytochrome C oxidase polypeptide VB (COX5B) [6] [Fold change] | Fold change, Transcription Initiation factor IIA Gamma Chain [7] [Fold change] | Fold change, Ras-related protein RAB-1B [8] [Fold change] | Fold change, Adenine Phosphoribosyltransferase (APRT) [9] [Fold change] | Fold change, Serine Protease Inhibitor 2.1 (SPI-2.1) [10] [Fold change] | Fold change, Ras-related protein RAB-4A [11] [Fold change] | Fold change, Myelin Basic Protein S (MBP S) [12] [Fold change]
CNCCC(Oc1ccc(C(F)(F)F)cc1)c1ccccc1 (stereo not drawn) [Fluoxetine, fluoxetine] | 0.7 | 1.6 | 2.7 | 2.5 | 2 | 3.2 | 2.5 | 1.5 | 5.8 | 2.9 | 1.5 | 3.1
COc1ccc(C(CN(C)C)C2(O)CCCCC2)cc1 (stereo not drawn) [Venlafaxine, venlafaxine] | 0.6 | 1.7 | 2.7 | 2.5 | 1.8 | 4 | 2.4 | 1.5 | 3 | 1.9 | 1.5 | 3.7
